Read-outs that look alike come from different tables or passages of the source.
Tested on: Aβ1-42 production
Assay: Cellular assay for inhibition of Aβ1-42 production (H4 APP751 SWE clone 8.20)
Assay type: cell-based
Conditions: H4 APP751 SWE clone 8.20 cells, 19 h incubation
Procedure, shortened: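 Secreted peptide was quantified with a two-antibody homogeneous format combining Wallac-labelled 565, which recognises the Aβ42 end, and APC-labelled 26D6 at 0.8 and 75 ng/well respectively. Antibodies were diluted in 40 mM Tris-HCl, pH 7.4, 0.2% BSA and left overnight at 4 °C after a 19 h compound incubation.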

[1] = class symbols, read-out: Activity Rating (Aβ42 cellular IC50)
[2] = 19 h, read-out: Activity Rating (Aβ42 cellular IC50), numeric value
[3] = 19 h, class symbols, read-out: Activity Rating (Aβ42 cellular IC50)
[4] = read-out: Activity Rating (Aβ42 cellular IC50), numeric value

IC50 [1] [nM]	IC50 [3] [nM]	further results	Compound
1.5 to 9.9	–	–	COc1cc(Nc2nc3c(c(N4CC(C)(O)C4)n2)CCC3c2ccc(F)cc2)ccc1-n1cnc(Cl)c1 (stereo not drawn) [Example 189A, 1-(2-(4-(4-chloro-1H-imidazol-1-yl)-3-methoxyphenylamino)-7-(4-fluorophenyl)-6,7-dihydro-5H-cyclopenta[d]pyrimidin-4-yl)-3-methylazetidin-3-ol]
–	–	IC50 [2]: 3.8 nM	CNc1nc(Nc2ccc(-n3ncnc3C)c(F)c2)nc2c1COCC2c1ccc(Br)cc1 (stereo not drawn) [Example 73, 8-(4-bromophenyl)-N^2-(3-fluoro-4-(5-methyl-1H-1,2,4-triazol-1-yl)phenyl)-N^4-methyl-7,8-dihydro-5H-pyrano[4,3-d]pyrimidine-2,4-diamine]
–	1.5 to 9.9	–	CNc1nc(Nc2ccc(-n3cnc(Cl)c3)c(OC)c2)nc2c1CCC2c1ccc(OC(F)(F)F)cc1 (racemic) [Example 97, N^2-(4-(4-Chloro-1H-imidazol-1-yl)-3-methoxyphenyl)-N^4-methyl-7-(4-(trifluoromethoxy)phenyl)-6,7-dihydro-5H-cyclopenta[d]pyrimidine-2,4-diamine]
–	–	IC50 [2]: 18 nM	CNc1nc(Nc2ccc(C#N)cc2)nc2c1CCC2c1ccccc1 (stereo not drawn) [Example 225, 4-(4-(methylamino)-7-phenyl-6,7-dihydro-5H-cyclopenta[d]pyrimidin-2-ylamino)benzonitrile]
100 to 1000	–	–	COc1cc(Nc2nc3c(c(N4CC=C(F)CC4)n2)CCC3c2ccc(F)cc2)ccc1-n1cnc(Cl)c1 (stereo not drawn) [Example 40B, N-(4-(4-chloro-1H-imidazol-1-yl)-3-methoxyphenyl)-4-(4-fluoro-5,6-dihydropyridin-1(2H)-yl)-7-(4-fluorophenyl)-6,7-dihydro-5H-cyclopenta[d]pyrimidin-2-amine]
10 to 100	–	–	COCC(Nc1nc(Nc2ccc(-n3cnc(Cl)c3)c(OC)c2)nc2c1CCC2c1ccc(F)cc1)C1CC1 (single isomer, unassigned) [Example 45C, N2-(4-(4-chloro-1H-imidazol-1-yl)-3-methoxyphenyl)-N4-(1-cyclopropyl-2-methoxyethyl)-7-(4-fluorophenyl)-6,7-dihydro-5H-cyclopenta[d]pyrimidine-2,4-diamine]
–	10 to 100	–	CNc1nc(Nc2ccc(-n3cnc(C)n3)c(OC)c2)nc2c1COCC2c1ccc(Cl)cc1 (stereo not drawn) [Example 71, 8-(4-chlorophenyl)-N^2-(3-methoxy-4-(3-methyl-1H-1,2,4-triazol-1-yl)phenyl)-N^4-methyl-7,8-dihydro-5H-pyrano[4,3-d]pyrimidine-2,4-diamine]
–	–	IC50 [2]: 7.4 nM	CCNc1nc(Nc2ccc(-n3ncnc3C)c(F)c2)nc2c1COCC2c1ccc(C(F)(F)F)cc1 (stereo not drawn) [Example 119A, N4-ethyl-N2-(3-fluoro-4-(5-methyl-1H-1,2,4-triazol-1-yl)phenyl)-8-(4-(trifluoromethyl)phenyl)-7,8-dihydro-5H-pyrano[4,3-d]pyrimidine-2,4-diamine]
–	–	IC50 [2]: 32 nM	CNc1nc(Nc2ccc(-c3cccnc3)c(OC)c2)nc2c1CCC2c1ccccc1 (stereo not drawn) [Example 263, N2-(3-methoxy-4-(pyridin-3-yl)phenyl)-N4-methyl-7-phenyl-6,7-dihydro-5H-cyclopenta[d]pyrimidine-2,4-diamine]
–	–	IC50 [2]: 13 nM	CNc1nc(Nc2ccc(-n3cnc(C)n3)c(OC)c2)nc2c1CCC2c1ccc(F)cc1 (racemic) [Example 44, 7-(4-fluorophenyl)-N2-(3-methoxy-4-(3-methyl-1H-1,2,4-triazol-1-yl)phenyl)-N4-methyl-6,7-dihydro-5H-cyclopenta[d]pyrimidine-2,4-diamine]
–	10 to 100	–	CNc1nc(Nc2ccc(-n3cnc(Cl)c3)c(OC)c2)nc2c1CN(S(C)(=O)=O)CC2c1ccccc1 (racemic) [Example 129, N2-(4-(4-chloro-1H-imidazol-1-yl)-3-methoxyphenyl)-N4-methyl-6-(methylsulfonyl)-8-phenyl-5,6,7,8-tetrahydropyrido[4,3-d]pyrimidine-2,4-diamine]
–	–	IC50 [4]: 5.3 nM	COc1cc(Nc2nc3c(c(N(C)C)n2)COCC3c2ccc(Cl)cc2)ccc1-n1cnc(Cl)c1 (single isomer, unassigned) [Example 65A, N^2-(4-(4-chloro-1H-imidazol-1-yl)-3-methoxyphenyl)-8-(4-chlorophenyl)-N^4,N^4-dimethyl-7,8-dihydro-5H-pyrano[4,3-d]pyrimidine-2,4-diamine]
10 to 100	–	–	COc1cc(Nc2nc3c(c(N4CC(F)C4)n2)CCC3c2ccccc2)ccc1-n1cnc(Cl)c1 (stereo not drawn) [Example 182, N-(4-(4-chloro-1H-imidazol-1-yl)-3-methoxyphenyl)-4-(3-fluoroazetidin-1-yl)-7-phenyl-6,7-dihydro-5H-cyclopenta[d]pyrimidin-2-amine]
10 to 100	–	–	COc1cc(Nc2nc3c(c(N4CC(F)(F)C4)n2)COCC3c2ccc(F)c(F)c2)ccc1-n1cnc(Cl)c1 (stereo not drawn) [Example 114A, N-(4-(4-chloro-1H-imidazol-1-yl)-3-methoxyphenyl)-4-(3,3-difluoroazetidin-1-yl)-8-(3,4-difluorophenyl)-7,8-dihydro-5H-pyrano[4,3-d]pyrimidin-2-amine]
–	–	IC50 [2]: 5.8 nM	CNc1nc(Nc2ccc(-n3cnc(Cl)c3)c(OC)c2)nc2c1COC2c1ccc(F)cc1 (single isomer, unassigned) [Example 79A, N^2-(4-(4-chloro-1H-imidazol-1-yl)-3-methoxyphenyl)-7-(4-fluorophenyl)-N^4-methyl-5,7-dihydrofuro[3,4-d]pyrimidine-2,4-diamine]
–	10 to 100	–	COc1cc(Nc2nc3c(c(N4CC(F)(F)C4)n2)CN(C)CC3c2ccc(F)cc2)ccc1-n1cnc(Cl)c1 (stereo not drawn) [Example 159, N-(4-(4-chloro-1H-imidazol-1-yl)-3-methoxyphenyl)-4-(3,3-difluoroazetidin-1-yl)-8-(4-fluorophenyl)-6-methyl-5,6,7,8-tetrahydropyrido[4,3-d]pyrimidin-2-amine]
–	100 to 1000	–	COc1cc(Nc2nc3c(c(N4CCC(F)C4)n2)COCC3c2ccc(F)cc2)ccc1-n1cnc(Cl)c1 (stereo in doubt) [Example 57B, N-(4-(4-chloro-1H-imidazol-1-yl)-3-methoxyphenyl)-8-(4-fluorophenyl)-4-((R)-3-fluoropyrrolidin-1-yl)-7,8-dihydro-5H-pyrano[4,3-d]pyrimidin-2-amine]
10 to 100	–	–	CCNc1nc(Nc2ccc(-n3cnc(Cl)c3)c(OC)c2)nc2c1CN(C(=O)OC)CC2c1ccccc1 (stereo not drawn) [Example 131, Methyl 2-(4-(4-chloro-1H-imidazol-1-yl)-3-methoxyphenylamino)-4-(ethylamino)-8-phenyl-7,8-dihydropyrido[4,3-d]pyrimidine-6(5H)-carboxylate]
10 to 100	–	–	CCC1CCCN1c1nc(Nc2ccc(-n3cnc(Cl)c3)c(OC)c2)nc2c1CCC2c1ccc(F)cc1 (single isomer, unassigned) [Example 23A, N-(4-(4-chloro-1H-imidazol-1-yl)-3-methoxyphenyl)-4-(2-ethylpyrrolidin-1-yl)-7-(4-fluorophenyl)-6,7-dihydro-5H-cyclopenta[d]pyrimidin-2-amine]
–	100 to 1000	–	CCN(C)c1nc(Nc2ccc(-n3cnc(Cl)c3)c(OC)c2)nc2c1CCNC2c1ccc(F)cc1 (stereo not drawn) [Example 166, N2-(4-(4-chloro-1H-imidazol-1-yl)-3-methoxyphenyl)-N4-ethyl-8-(4-fluorophenyl)-N4-methyl-5,6,7,8-tetrahydropyrido[3,4-d]pyrimidine-2,4-diamine]
–	10 to 100	–	CCN(C)c1nc(Nc2ccc(-n3cnc(Cl)c3)c(OC)c2)nc2c1CCOC2c1ccc(F)cc1 (stereo not drawn) [Example 89, N2-(4-(4-chloro-1H-imidazol-1-yl)-3-methoxyphenyl)-N4-ethyl-8-(4-fluorophenyl)-N4-methyl-6,8-dihydro-5H-pyrano[3,4-d]pyrimidine-2,4-diamine]
–	–	IC50 [4]: 160 nM	COc1cc(Nc2nc3c(c(N(C)C)n2)COCC3c2ccc(Cl)cc2)ccc1-n1cnc(Cl)c1 (single isomer, unassigned) [Example 65B, N^2-(4-(4-chloro-1H-imidazol-1-yl)-3-methoxyphenyl)-8-(4-chlorophenyl)-N^4,N^4-dimethyl-7,8-dihydro-5H-pyrano[4,3-d]pyrimidine-2,4-diamine]
–	1.5 to 9.9	–	CCNc1nc(Nc2ccc(-n3cnc(Cl)c3)c(OC)c2)nc2c1CN(S(C)(=O)=O)CC2c1ccccc1 (stereo not drawn) [Example 134, N2-(4-(4-chloro-1H-imidazol-1-yl)-3-methoxyphenyl)-N4-ethyl-6-(methylsulfonyl)-8-phenyl-5,6,7,8-tetrahydropyrido[4,3-d]pyrimidine-2,4-diamine]
10 to 100	–	–	CNc1nc(Nc2ccc(-n3cnc(C)n3)c(OC)c2)nc2c1CCC2c1ccc(F)cc1F (single isomer, unassigned) [Example 193B, 7-(2,4-difluorophenyl)-N2-(3-methoxy-4-(3-methyl-1H-1,2,4-triazol-1-yl)phenyl)-N4-methyl-6,7-dihydro-5H-cyclopenta[d]pyrimidine-2,4-diamine]
–	10 to 100	–	COc1cc(Nc2nc3c(c(N4CCN(C)CC4)n2)CCC3c2ccc(F)cc2)ccc1-n1cnc(Cl)c1 (stereo not drawn) [Example 30, N-(4-(4-chloro-1H-imidazol-1-yl)-3-methoxyphenyl)-7-(4-fluorophenyl)-4-(4-methylpiperazin-1-yl)-6,7-dihydro-5H-cyclopenta[d]pyrimidin-2-amine]
–	1.5 to 9.9	–	CNc1nc(Nc2ccc(-n3cnc(C)n3)c(F)c2)nc2c1CCC2c1ccccc1 (stereo not drawn) [Example 2, N2-(3-fluoro-4-(3-methyl-1H-1,2,4-triazol-1-yl)phenyl)-N4-methyl-7-phenyl-6,7-dihydro-5H-cyclopenta[d]pyrimidine-2,4-diamine]
10 to 100	–	–	COc1cc(Nc2nc3c(c(N(C)C)n2)COCC3c2ccccc2)ccc1-n1cnc(Cl)c1 (single isomer, unassigned) [Example 53B, N^2-(4-(4-Chloro-1H-imidazol-1-yl)-3-methoxyphenyl)-N^4,N^4-dimethyl-8-phenyl-7,8-dihydro-5H-pyrano[4,3-d]pyrimidine-2,4-diamine]
